Test results: US10072023B2, “Diarylethene compounds and uses thereof” (SWITCH MATERIALS, INC., priority 2011, dated 2018)

Test: Absorbance at photostationary state (PSS) under simulated sunlight or 365 nm light
Format: physicochemical
Design: λ max: unit not given here
Details: for Absorbance at PSS, 365 nm: 365 nm light source; for Absorbance at PSS, 365 nm / Absorbance at PSS, full / Absorbance at PSS, +UV / λ max: 2.0×10^−5 M in triglyme; for sensitivity index: ratio of PSS under 365 nm light to PSS under full spectrum light (without UV blocking film); for Absorbance at PSS, full: simulated sunlight (QSUN solar simulator), no UV blocking film; for Absorbance at PSS, +UV: simulated sunlight with UV blocking film (cutoff 370 nm); for λ max: wavelength of maximum absorbance in the visible range, ring-closed isoform
Description: Absorbance at a PSS for selected compounds was measured at 2.0×10^−5 M in triglyme in the absence (full) or presence (+UV) of a UV blocking film with a UV cutoff wavelength of 370 nm (10% transmission at 370 nm), using simulated sunlight (QSUN solar simulator) as a light source, or a 365 nm light source; these PSS are reported in Tables 1.5. […] “Switch” refers to the ability (yes or no) of the compound to be reversibly converted under photochromic and electrochromic conditions between a ring-open isomer and ring-closed isomer.
A sensitivity index (SI) is a ratio of the PSS under 365 nm light to the PSS under full spectrum light (without UV blocking film). SI is an indicator of the sensitivity of the compound to the composition of the incident light (a change in the ratio of UV and visible components)—photochemical ring-opening is induced by a portion of the visible light spectrum.
Photostationary State (PSS) UV/Vis spectra are obtained using an OceanOptics™ Spectrophotometer until absorption in the visible region of the spectrum stabilizes. A 2×10^−5M solution of compound in solvent is prepared, and photofaded using visible light until absorption in the visible region of the spectrum stabilizes. The sample is then irradiated with simulated sunlight (QSUN SS-150 Solar Simulator with xenon arc lamp) until the absorption spectrum stabilizes. To obtain PSS in the presence of a UV blocking film, a second sample is prepared and irradiated as described, with a UV blocking film inserted in the light path when irradiating.

| Structure (SMILES) | Absorbance at PSS, 365 nm | sensitivity index | Absorbance at PSS, full | Absorbance at PSS, +UV | λ max |
| --- | --- | --- | --- | --- | --- |
| FC1(F)C(c2cc(-c3ccccc3)sc2-c2ccccc2)=C(c2cc(-c3cccs3)sc2-c2cccs2)C(F)(F)C1(F)F [S005, 3′-(2-(2,5-diphenylthiophen-3-yl)-3,3,4,4,5,5-hexafluorocyclopent-1-en-1-yl)-2,2′:5′,2″-terthiophene] | 0.195 | 2.71 | 0.072 | 0.028 | 618 |
| Cc1ccc(-c2cc(C3=C(c4cc(-c5ccc(C)s5)sc4-c4ccc(C)s4)C(F)(F)C(F)(F)C3(F)F)c(-c3ccc(C)s3)s2)s1 [S007, 3′,3″″-(perfluorocyclopent-1-ene-1,2-diyl)bis(5,5″-dimethyl-2,2′:5′,2″-terthiophene)] | 0.353 | 1.67 | 0.212 | 0.154 | 650 |
| FC1(F)C(c2c(-c3ccccc3)sc3ccccc23)=C(c2c(-c3ccccc3)sc3ccccc23)C(F)(F)C1(F)F [S014, 3,3′-(perfluorocyclopent-1-ene-1,2-diyl)bis(2-phenylbenzo[b]thiophene)] | 0.011 | 2.75 | 0.004 | 0.006 | 525 |
| O=C(O)c1ccc(-c2cc(C3=C(c4cc(-c5ccc(C(=O)O)s5)sc4-c4ccc(C(=O)O)s4)C(F)(F)C(F)(F)C3(F)F)c(-c3ccc(C(=O)O)s3)s2)s1 [S024] | 0.102 | 5.10 | 0.02 | 0.018 | 650 |
| FC1(F)C(c2cc(-c3ccc(Cl)s3)sc2-c2ccc(Cl)s2)=C(c2cc(-c3ccc(Cl)s3)sc2-c2ccc(Cl)s2)C(F)(F)C1(F)F [S026, 3′,3″″-(perfluorocyclopent-1-ene-1,2-diyl)bis(5,5″-dichloro-2,2′:5′,2″-terthiophene)] | 0.383 | 1.53 | 0.251 | 0.196 | 645 |
| Cc1ccc(-c2sc(-c3cccs3)cc2C2=C(c3cc(-c4cccs4)sc3-c3ccc(C)s3)C(F)(F)C(F)(F)C2(F)F)s1 [S027, 3′,3″″-(perfluorocyclopent-1-ene-1,2-diyl)bis(5-methyl-2,2′:5′,2″-terthiophene)] | 0.281 | 1.80 | 0.156 | 0.116 | 645 |
| Cc1ccc(-c2ccc(-c3cc(C4=C(c5cc(-c6ccc(-c7ccc(C)s7)s6)sc5-c5ccc(C)s5)C(F)(F)C(F)(F)C4(F)F)c(-c4ccc(C)s4)s3)s2)s1 [S034, 3′,3″″′-(perfluorocyclopent-1-ene-1,2-diyl)bis(5,5″′-dimethyl-2,2′:5′,2″:5″,2″′-quaterthiophene)] | 0.468 | 1.73 | 0.271 | 0.246 | 690 |
| FC1(F)C(c2nc(-c3ccccc3)sc2-c2ccccc2)=C(c2nc(-c3ccccc3)sc2-c2ccccc2)C(F)(F)C1(F)F [S035, 4,4′-(perfluorocyclopent-1-ene-1,2-diyl)bis(2,5-diphenylthiazole)] | 0.416 | 8.32 | 0.05 | 0.016 | 540 |
| Cc1sc(-c2cc(C3=C(c4cc(-c5sc(C)c6c5OCCO6)sc4-c4sc(C)c5c4OCCO5)C(F)(F)C(F)(F)C3(F)F)c(-c3sc(C)c4c3OCCO4)s2)c2c1OCCO2 [S036] | 0.174 | 7.25 | 0.024 | 0.016 | 665 |
| N#Cc1ccc(-c2ccc(-c3cc(C4=C(c5cc(-c6ccc(-c7ccc(C#N)s7)s6)sc5-c5cccs5)C(F)(F)C(F)(F)C4(F)F)c(-c4cccs4)s3)s2)s1 [S037, 4″,4″″″-(perfluorocyclopent-1-ene-1,2-diyl)bis(([2,2′:5′,2″:5″,2″′-quaterthiophene]-5-carbonitrile))] | 0.442 | 1.18 | 0.375 | 0.355 | 680 |
| FC1(F)C(c2cc(-c3ccc(/C=C/c4ccccc4)s3)sc2-c2cccs2)=C(c2cc(-c3ccc(/C=C/c4ccccc4)s3)sc2-c2cccs2)C(F)(F)C1(F)F [S038, (E)-4′,4″″-(perfluorocyclopent-1-ene-1,2-diyl)bis(5-((E)-styryl)-2,2′:5′,2″-terthiophene)] | 0.642 | 1.41 | 0.456 | 0.431 | 690 |
| c1ccc(-c2cc(-c3nc(-c4ccccc4)sc3-c3cc(-c4ccccc4)sc3-c3ccccc3)c(-c3ccccc3)s2)cc1 [S055, 4,5-bis(2,5-diphenylthiophen-3-yl)-2-phenylthiazole] | 0.191 | 4.55 | 0.042 | 0.008 | 640 |
| FC1(F)C(c2cc(-c3ccc(Cl)cc3)sc2-c2ccc(Cl)cc2)=C(c2cc(-c3ccc(Cl)cc3)sc2-c2ccc(Cl)cc2)C(F)(F)C1(F)F [S056, 3,3′-(perfluorocyclopent-1-ene-1,2-diyl)bis(2,5-bis(4-chlorophenyl)thiophene)] | 0.194 | 2.73 | 0.071 | 0.026 | 610 |
| CC(=O)c1ccc(-c2cc(C3=C(c4cc(-c5ccccc5)sc4-c4ccc(C(C)(C)C)cc4)C(F)(F)C(F)(F)C3(F)F)c(-c3ccc(C(C)(C)C)cc3)s2)cc1 [S065, 1-(4-(5-(4-tert-butylphenyl)-4-(2-(2-(4-tert-butylphenyl)-5-phenylthiophen-3-yl)-3,3,4,4,5,5-hexafluorocyclopent-1-enyl)thiophen-2-yl)phenyl)ethanone] | 0.281 | 2.04 | 0.138 | 0.054 | 625 |
| CC(C)(C)c1ccc(-c2sc(-c3ccc(C(C)(C)O)cc3)cc2C2=C(c3cc(-c4ccc(C(C)(C)O)cc4)sc3-c3ccc(C(C)(C)C)cc3)C(F)(F)C(F)(F)C2(F)F)cc1 [S067, 2,2′-((4,4′-(perfluorocyclopent-1-ene-1,2-diyl)bis(5-(4-(tert-butyl)phenyl)thiophene-4,2-diyl))bis(4,1-phenylene))bis(propan-2-ol)] | 0.182 | 2.68 | 0.068 | 0.03 | 615 |
| CC(C)(C)c1ccc(-c2sc(C(C)(C)C)cc2C2=C(c3cc(C(C)(C)C)sc3-c3ccc(C(C)(C)C)s3)C(F)(F)C(F)(F)C2(F)F)s1 [S073, 3,3′-(perfluorocyclopent-1-ene-1,2-diyl)bis(5,5′-di-tert-butyl-2,2′-bithiophene)] | 0.06 | 5.71 | 0.0105 | 0.006 | 550 |
| N#Cc1ccc(-c2cc(C3=C(c4cc(-c5ccc(C#N)cc5)sc4-c4ccc(C#N)cc4)C(F)(F)C(F)(F)C3(F)F)c(-c3ccc(C#N)cc3)s2)cc1 [S074, 3,3′-(perfluorocyclopent-1-ene-1,2-diyl)bis(2,5-bis(4-cyanophenyl)thiophene)] | 0.189 | 2.74 | 0.069 | 0.024 | 620 |
| COc1ccc(-c2oc3ccc(OC)cc3c2C2=C(c3c(-c4ccc(OC)cc4)oc4ccc(OC)cc34)C(F)(F)C(F)(F)C2(F)F)cc1 [S083] | 0.167 | 7.26 | 0.023 | 0.008 | 550 |
| Oc1ccc(-c2cc(C3=C(c4cc(-c5ccc(O)cc5)sc4-c4ccc(O)cc4)C(F)(F)C(F)(F)C3(F)F)c(-c3ccc(O)cc3)s2)cc1 [S084, 3,3′-(perfluorocyclopent-1-ene-1,2-diyl)bis(2,5-bis(4-hydroxyphenyl)thiophene)] | 0.23 | 2.56 | 0.09 | 0.051 | 625 |
| COc1ccc(-c2sc(-c3ccc(C#N)cc3)cc2C2=C(c3cc(-c4ccc(C#N)cc4)sc3-c3ccc(OC)cc3)C(F)(F)C(F)(F)C2(F)F)cc1 [S085] | 0.187 | 1.16 | 0.161 | 0.08 | 640 |
